Assay results: PMC10033419, “Blocking NS3–NS4B interaction inhibits dengue virus in non-human primates” (Nature, 2023)
Like-named read-outs stand apart in the source and are kept apart here.

How the values were obtained:
DENV-2 RL strain = assay: Survival study, lethal DENV challenge with 4G2 antibody; format: in vivo, AG129 mice
[1] = rhesus monkey, in vivo
[2] = both, Indian-origin, rhesus monkey, in vivo, po
in vitro = conditions: African green monkey

SMILES: COc1cc(N[C@H](C(=O)c2c[nH]c3ccc(OC(F)(F)F)cc23)c2ccc(Cl)cc2OC)cc(S(C)(=O)=O)c1 [JNJ-1802]
- % Survival (DENV-2 RL strain; 802R_1, BID, d p.i. 25 = end of study): 100%
- % Survival (DENV-2 RL strain; 802R_3, BID, d p.i. 0): 100%
- % Survival (DENV-2 RL strain; 802R_3, BID, d p.i. 1): 100%
- % Survival (DENV-2 RL strain; 802R_3, BID, d p.i. 2): 100%
- % Survival (DENV-2 RL strain; 802R_3, BID, d p.i. 4): 100%
- % Survival (DENV-2 RL strain; 802R_3, BID, d p.i. 5): 100%
- % Survival (DENV-2 RL strain; 802R_3, BID, d p.i. 6): 100%
- % Survival (DENV-2 RL strain; 802R_3, BID, d p.i. 7): 100%
- % Survival (DENV-2 RL strain; 802R_3, BID, d p.i. 8): 100%
- % Survival (DENV-2 RL strain; 802R_3, BID, d p.i. 9): 100%
- % Survival (DENV-2 RL strain; 802R_3, BID, d p.i. 10): 100%
- % Survival (DENV-2 RL strain; 802R_3, BID, d p.i. 11): 100%
- % Survival (DENV-2 RL strain; 802R_3, BID, d p.i. 12): 100%
- % Survival (DENV-2 RL strain; 802R_3, BID, d p.i. 13): 100%
- % Survival (DENV-2 RL strain; 802R_3, BID, d p.i. 14): 100%
- % Survival (DENV-2 RL strain; 802R_3, BID, d p.i. 15): 100%
- % Survival (DENV-2 RL strain; 802R_3, BID, d p.i. 16): 100%
- % Survival (DENV-2 RL strain; 802R_3, BID, d p.i. 17): 100%
- % Survival (DENV-2 RL strain; 802R_3, BID, d p.i. 18): 100%
- % Survival (DENV-2 RL strain; 802R_3, BID, d p.i. 19): 100%
- % Survival (DENV-2 RL strain; 802R_3, BID, d p.i. 20): 100%
- % Survival (DENV-2 RL strain; 802R_3, BID, d p.i. 21): 100%
- % Survival (DENV-2 RL strain; 802R_3, BID, d p.i. 22): 90%
- % Survival (DENV-2 RL strain; 802R_3, BID, d p.i. 23): 90%
- % Survival (DENV-2 RL strain; 802R_3, BID, d p.i. 24): 80%
- % Survival (DENV-2 RL strain; 802R_3, BID, d p.i. 25 = end of study): 80%
- % Survival (DENV-2 RL strain; 802R_10, BID, d p.i. 0): 100%
- % Survival (DENV-2 RL strain; 802R_10, BID, d p.i. 1): 100%
- % Survival (DENV-2 RL strain; 802R_10, BID, d p.i. 2): 100%
- % Survival (DENV-2 RL strain; 802R_10, BID, d p.i. 4): 100%
- % Survival (DENV-2 RL strain; 802R_10, BID, d p.i. 5): 100%
- % Survival (DENV-2 RL strain; 802R_10, BID, d p.i. 6): 100%
- % Survival (DENV-2 RL strain; 802R_10, BID, d p.i. 7): 100%
- % Survival (DENV-2 RL strain; 802R_10, BID, d p.i. 8): 100%
- % Survival (DENV-2 RL strain; 802R_10, BID, d p.i. 9): 100%
- % Survival (DENV-2 RL strain; 802R_10, BID, d p.i. 10): 100%
- % Survival (DENV-2 RL strain; 802R_10, BID, d p.i. 11): 100%
- % Survival (DENV-2 RL strain; 802R_10, BID, d p.i. 12): 100%
- % Survival (DENV-2 RL strain; 802R_10, BID, d p.i. 13): 100%
- % Survival (DENV-2 RL strain; 802R_10, BID, d p.i. 14): 100%
- % Survival (DENV-2 RL strain; 802R_10, BID, d p.i. 15): 80%
- % Survival (DENV-2 RL strain; 802R_10, BID, d p.i. 16): 80%
- % Survival (DENV-2 RL strain; 802R_10, BID, d p.i. 17): 80%
- % Survival (DENV-2 RL strain; 802R_10, BID, d p.i. 18): 80%
- % Survival (DENV-2 RL strain; 802R_10, BID, d p.i. 19): 80%
- % Survival (DENV-2 RL strain; 802R_10, BID, d p.i. 20): 80%
- % Survival (DENV-2 RL strain; 802R_10, BID, d p.i. 21): 80%
- % Survival (DENV-2 RL strain; 802R_10, BID, d p.i. 22): 80%
- % Survival (DENV-2 RL strain; 802R_10, BID, d p.i. 23): 80%
- % Survival (DENV-2 RL strain; 802R_10, BID, d p.i. 24): 80%
- % Survival (DENV-2 RL strain; 802R_10, BID, d p.i. 25 = end of study): 80%
- haematological analysis [1]: did not show any indication for a treatment-related effect
- Tmax ([2]; 0.01 mg/kg): 24 h
- Cmax ([2]; 0.18 mg/kg): 25.3 ± 6.7 ng/mL
- Tmax ([2]; 3 mg/kg): up to 24 h
- CC50 (in vitro): 16 µM
